In the supplement of paper PMC10307832:

Legend:
Experiment in all cases: relative viability (nuclei count vs DMSO), 5 days (fraction); higher = more cells survive
BI-D1870 + Bortezomib = compound: CC(C)CCN1c2nc(Nc3cc(F)c(O)c(F)c3)ncc2N(C)C(=O)C1C [BI-D1870] + CC(C)C[C@H](NC(=O)[C@H](Cc1ccccc1)NC(=O)c1cnccn1)B(O)O [Bortezomib] (partner 0.002 µM)
In short: (§1)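 Lung cancer cell lines in 1536-well plates were dosed by pin tool the day after seeding, either with one drug alone or with a fixed anchor-drug dose plus five library-drug doses (not always all listed) in √10 steps. After 5 days, cells were fixed and their nuclei stained in one step (final 0.05% Triton X-100, 1% formaldehyde, 1 ug/ml Hoechst), then counted on 4× images. Relative viability is the nuclei count in treated wells divided by that in vehicle wells. Values are medians of duplicate plates.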

BI-D1870 + Navitoclax = compound: CC(C)CCN1c2nc(Nc3cc(F)c(O)c(F)c3)ncc2N(C)C(=O)C1C [BI-D1870] + CC1(C)CCC(c2ccc(Cl)cc2)=C(CN2CCN(c3ccc(C(=O)NS(=O)(=O)c4ccc(N[C@H](CCN5CCOCC5)CSc5ccccc5)c(S(=O)(=O)C(F)(F)F)c4)cc3)CC2)C1 [Navitoclax] (partner 0.5 µM)
In short: as §1

BI-D1870 + Linsitinib = compound: CC(C)CCN1c2nc(Nc3cc(F)c(O)c(F)c3)ncc2N(C)C(=O)C1C [BI-D1870] + C[C@]1(O)C[C@@H](c2nc(-c3ccc4ccc(-c5ccccc5)nc4c3)c3c(N)nccn32)C1 [Linsitinib] (partner 1 µM)
In short: as §1

Zebularine + Alpelisib = compound: O=c1ncccn1[C@@H]1O[C@H](CO)[C@@H](O)[C@H]1O [Zebularine] + Cc1nc(NC(=O)N2CCC[C@H]2C(N)=O)sc1-c1ccnc(C(C)(C)C(F)(F)F)c1 [Alpelisib] (partner 2 µM)
In short: as §1

Work on UMC-11 yielded a relative viability (BI-D1870 + Bortezomib; first compound 0.04 µM) of 0.788, a relative viability (BI-D1870 + Bortezomib; first compound 0.1265 µM) of 0.647 and a relative viability (BI-D1870 + Bortezomib; first compound 0.4 µM) of 0.561. It also gave a relative viability (BI-D1870 + Bortezomib; first compound 1.265 µM) of 0.712, a relative viability (BI-D1870 + Bortezomib; first compound 4 µM) of 0.553 and a relative viability (BI-D1870 + Navitoclax; first compound 0.04 µM) of 0.287. The relative viability (BI-D1870 + Navitoclax; first compound 0.1265 µM) was 0.295, the relative viability (BI-D1870 + Navitoclax; first compound 0.4 µM) was 0.311 and the relative viability (BI-D1870 + Navitoclax; first compound 1.265 µM) was 0.336. For the same cell line, the relative viability (BI-D1870 + Navitoclax; first compound 4 µM) was 0.129, the relative viability (BI-D1870 + Linsitinib; first compound 0.04 µM) was 1.06 and the relative viability (BI-D1870 + Linsitinib; first compound 0.1265 µM) was 0.924. For the same cell line, the relative viability (BI-D1870 + Linsitinib; first compound 0.4 µM) was 0.972, the relative viability (BI-D1870 + Linsitinib; first compound 1.265 µM) was 1.06 and the relative viability (BI-D1870 + Linsitinib; first compound 4 µM) was 0.693. It also gave a relative viability (Zebularine + Alpelisib; first compound 1 µM) of 1.08, a relative viability (Zebularine + Alpelisib; first compound 3.162 µM) of 0.958 and a relative viability (Zebularine + Alpelisib; first compound 10 µM) of 0.419. The relative viability (Zebularine + Alpelisib; first compound 31.62 µM) was 0.789 and the relative viability (Zebularine + Alpelisib; first compound 100 µM) was 0.419.
